Measured values: article PMC12210912, “Pharmacologic properties and inhibitory activity of 6-azasteroids against Mycobacterium leprae in vivo and in vitro” (Microbiology Spectrum, 2025)

What was measured:
[1] = system: M. leprae 3β-HSD; set-up: method as in PMID 34395315; settings: cited from earlier work
[2] = molecular target: T1, Androgen Receptor (Homo sapiens, UniProt P10275, T878A); assay: androgen receptor radioligand binding inhibition; settings: [3H]methyltrienolone binding, LNCaP cells cytosol
T1 construct: (ii) AR (human) LNCaP cells (cytosol); host or cells: LNCaP cells (cytosol)
T1 sequence (P10275 1-920 T878A): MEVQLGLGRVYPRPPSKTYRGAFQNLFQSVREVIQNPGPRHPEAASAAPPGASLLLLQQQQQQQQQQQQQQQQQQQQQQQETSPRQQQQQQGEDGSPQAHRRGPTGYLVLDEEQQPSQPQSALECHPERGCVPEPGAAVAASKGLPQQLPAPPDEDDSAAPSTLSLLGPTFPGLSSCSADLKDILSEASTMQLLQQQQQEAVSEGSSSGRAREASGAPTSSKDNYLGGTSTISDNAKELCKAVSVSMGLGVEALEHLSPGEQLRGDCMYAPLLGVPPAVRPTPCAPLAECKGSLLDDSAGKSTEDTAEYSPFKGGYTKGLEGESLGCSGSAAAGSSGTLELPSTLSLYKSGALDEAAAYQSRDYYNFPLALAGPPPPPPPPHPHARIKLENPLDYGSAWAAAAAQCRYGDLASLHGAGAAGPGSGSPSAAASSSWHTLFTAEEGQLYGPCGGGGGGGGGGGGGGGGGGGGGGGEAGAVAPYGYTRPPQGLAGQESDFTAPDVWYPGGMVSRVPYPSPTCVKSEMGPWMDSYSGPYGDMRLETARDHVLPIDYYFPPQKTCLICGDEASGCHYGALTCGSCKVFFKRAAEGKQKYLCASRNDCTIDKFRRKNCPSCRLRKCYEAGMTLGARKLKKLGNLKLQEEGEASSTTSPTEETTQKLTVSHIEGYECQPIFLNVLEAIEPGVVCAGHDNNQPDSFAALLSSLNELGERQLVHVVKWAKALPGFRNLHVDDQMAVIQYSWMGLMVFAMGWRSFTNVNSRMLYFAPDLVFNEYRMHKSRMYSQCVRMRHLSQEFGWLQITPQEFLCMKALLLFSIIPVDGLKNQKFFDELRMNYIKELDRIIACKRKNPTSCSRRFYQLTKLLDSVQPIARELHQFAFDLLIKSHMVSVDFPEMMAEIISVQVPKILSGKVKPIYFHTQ
Procedure: (§1) Four nuclear receptors: glucocorticoid, androgen, LXRα, and LXRβ were assayed. Inhibition of agonist binding to each of the receptors was carried out following a standard protocol by Eurofins, Inc., USA. Compounds were tested at 10 µM. Compound binding was measured by scintillation counting and was calculated as a % inhibition of the binding of a radioactively labeled ligand specific for each target. Percent inhibition of control specific binding was expressed as
(§2) 100−[(measured specific binding)/(control specific binding)∗100]
(§3) where measured specific binding is the amount of radioactive ligand binding obtained in the presence of test compounds.
(§4) (iii) LXRα (human) recombinant protein expressed in E. coli; agonist radioligand 20 nM [^3H] […] (iv) LXRβ (human) recombinant protein expressed in E. coli; agonist radioligand 20 nM [^3H]

[3] = molecular target: T2, Glucocorticoid Receptor (Homo sapiens, UniProt P04150); assay: glucocorticoid receptor radioligand binding inhibition; settings: [3H]dexamethasone binding, IM-9 cells cytosol
T2 construct: (i) GR (human) IM-9 cells (cytosol); host or cells: IM-9 cells (cytosol)
T2 sequence (P04150 1-777): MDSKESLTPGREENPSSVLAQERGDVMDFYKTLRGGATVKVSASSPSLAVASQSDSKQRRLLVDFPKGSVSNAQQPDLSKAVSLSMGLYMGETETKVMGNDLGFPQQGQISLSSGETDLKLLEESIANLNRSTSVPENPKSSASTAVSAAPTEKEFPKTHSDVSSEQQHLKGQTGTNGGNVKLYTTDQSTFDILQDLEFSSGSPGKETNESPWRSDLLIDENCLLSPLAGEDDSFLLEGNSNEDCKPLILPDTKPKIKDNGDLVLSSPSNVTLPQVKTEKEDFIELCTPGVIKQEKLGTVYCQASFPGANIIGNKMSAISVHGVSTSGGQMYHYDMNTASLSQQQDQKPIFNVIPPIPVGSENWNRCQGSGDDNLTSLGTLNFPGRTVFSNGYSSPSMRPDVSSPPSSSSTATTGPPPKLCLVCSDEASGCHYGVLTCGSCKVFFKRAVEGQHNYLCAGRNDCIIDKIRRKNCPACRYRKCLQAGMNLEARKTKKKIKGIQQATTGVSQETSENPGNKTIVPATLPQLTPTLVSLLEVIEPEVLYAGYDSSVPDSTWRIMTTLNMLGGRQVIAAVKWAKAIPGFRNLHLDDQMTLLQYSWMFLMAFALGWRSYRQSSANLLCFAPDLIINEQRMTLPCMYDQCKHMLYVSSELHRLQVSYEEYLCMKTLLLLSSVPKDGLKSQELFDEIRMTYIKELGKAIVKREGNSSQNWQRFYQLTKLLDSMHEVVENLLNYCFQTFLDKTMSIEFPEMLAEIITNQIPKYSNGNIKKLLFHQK
Procedure: as §1, §2, §3, §4

[4] = system: human type 2 5α-reductase; set-up: method as in PMID 8057283; settings: cited from earlier work

Structure (SMILES) | M. leprae 3β-HSD activity (cholestenone production in axenic medium) [1] | % inhibition observed, Androgen Receptor ([2]; 10 µM) | inhibition at 10 µM ([2]; read-out: % inhibition observed, Androgen Receptor) [%] | % inhibition observed, Glucocorticoid Receptor ([3]; 10 µM) | inhibition at 10 µM ([3]; read-out: % inhibition observed, Glucocorticoid Receptor) [%] | inhibition of human type 2 5α-reductase [4]
CC(C)(C)c1ccc(C(C)(C)C)c(NC(=O)C2CCC3C4CNC5=CC(=O)CC[C@]5(C)C4CC[C@]23C)c1 (stereo partly drawn) [Compound 1] | inhibits M. leprae 3β-HSD activity |  |  |  |  | 
C[C@]12CCC3C(CNC4=CC(=O)CC[C@@]43C)C1CCC2C(=O)NC(c1ccc(F)cc1)c1ccc(F)cc1 (stereo partly drawn) [Compound 5] |  | low binding | 9.1 | moderate | 46.4 | nanomolar inhibitor
